# Legend:
# Type in all cases: in vivo
# sugarcane [1] = assay: Sugarcane ripening field studies, halauxifen-methyl plus haloxyfop-P-methyl; conditions: six field studies, 30 days after application, rate g ai/ha: halauxifen-methyl 2.16, mixture 27 + 2.16, haloxyfop-P-methyl 27, sulfometuron 15, trinexapac 250
# sugarcane [2] = assay: Sugarcane ripening field studies, florpyrauxifen-benzyl and haloxyfop-P-methyl
# ratoon sugarcane = assay: Ratoon sugarcane control field studies; conditions: for % Control: post application, 4 to 6 leaves, 50 to 60 cm
# Description: In order to study the activity of Haloxyfop-P-methyl as possible herbicide for ratoon sugarcane control, field studies were carried out. Haloxyfop-P-methyl was tested at 124; 248; 373; 620 and 1240 g ai/ha plus mineral oil at 0.5% v/v and compared to key standard, as glyphosate (Glizmax Prime®) at 2160 g ae/ha. Trials were sprayed postemergence with 4 to 6 leaves or 50 to 60 cm of ratoon sugarcane regrowth and assessed percentage of control at 14; 30; 45 and 60 days after application (DAA).
# [3] = 14.5 g ai/ha, single application 50 L/ha 60 days before harvest, 30 DAA
# [4] = 14.5 g ai/ha, single application 50 L/ha 60 days before harvest, 45 DAA
# [5] = 50 g ai/ha, single application 50 L/ha 60 days before harvest, 30 DAA
# [6] = 50 g ai/ha, single application 50 L/ha 60 days before harvest, 45 DAA
# [7] = 100 g ai/ha, single application 50 L/ha 60 days before harvest, 30 DAA
# [8] = 100 g ai/ha, single application 50 L/ha 60 days before harvest, 45 DAA
compound,measurement,setting,value
"COC(=O)[C@@H](C)Oc1ccc(Oc2ncc(C(F)(F)F)cc2Cl)cc1 [Haloxyfop-P-methyl, haloxyfop-P-methyl]",Gain Fiber,sugarcane [1]; untreated 0.5,0.7%
same,Gain POL,sugarcane [1]; untreated 2.7,2.9%
same,Gain Purity,sugarcane [1]; untreated 6.8,6.6%
same,Gain TRS,sugarcane [1]; untreated 23.4,24.7 kg/ton
same,Gain POL,sugarcane [2]; [3],3.3%
same,Gain Purity,sugarcane [2]; [3],13.0%
same,Gain TRS,sugarcane [2]; [3],27.8 kg/ton
same,Gain POL,sugarcane [2]; [4],6.7%
same,Gain Purity,sugarcane [2]; [4],18.3%
same,Gain TRS,sugarcane [2]; [4],49.6 kg/ton
same,Gain POL,sugarcane [2]; [5],2.8%
same,Gain Purity,sugarcane [2]; [5],8.1%
same,Gain TRS,sugarcane [2]; [5],23.7 kg/ton
same,Gain POL,sugarcane [2]; [6],4.4%
same,Gain Purity,sugarcane [2]; [6],10.3%
same,Gain TRS,sugarcane [2]; [6],39.9 kg/ton
same,Gain POL,sugarcane [2]; [7],3.2%
same,Gain Purity,sugarcane [2]; [7],7.2%
same,Gain TRS,sugarcane [2]; [7],28.6 kg/ton
same,Gain POL,sugarcane [2]; [8],4.0%
same,Gain Purity,sugarcane [2]; [8],8.8%
same,Gain TRS,sugarcane [2]; [8],36.7 kg/ton
same,Gain Fiber,"sugarcane [2]; 30 days after application, rate g ai/ha: haloxyfop-P-methyl 27, florpyrauxifen-benzyl 2.2, mixture 27 + 2.2, sulfometuron 15, trinexapac 250, untreated 0.6",0.4%
same,Gain POL,"sugarcane [2]; 30 days after application, rate g ai/ha: haloxyfop-P-methyl 27, florpyrauxifen-benzyl 2.2, mixture 27 + 2.2, sulfometuron 15, trinexapac 250, untreated 2.8",2.6%
same,Gain Purity,"sugarcane [2]; 30 days after application, rate g ai/ha: haloxyfop-P-methyl 27, florpyrauxifen-benzyl 2.2, mixture 27 + 2.2, sulfometuron 15, trinexapac 250, untreated 7.2",6.1%
same,Gain TRS,"sugarcane [2]; 30 days after application, rate g ai/ha: haloxyfop-P-methyl 27, florpyrauxifen-benzyl 2.2, mixture 27 + 2.2, sulfometuron 15, trinexapac 250, untreated 25.2",23.7 kg/ton
same,Gain Fiber,"sugarcane [2]; 45 days after application, rate g ai/ha: haloxyfop-P-methyl 27, florpyrauxifen-benzyl 2.2, mixture 27 + 2.2, sulfometuron 15, trinexapac 250, untreated 1.2",0.1%
same,Gain POL,"sugarcane [2]; 45 days after application, rate g ai/ha: haloxyfop-P-methyl 27, florpyrauxifen-benzyl 2.2, mixture 27 + 2.2, sulfometuron 15, trinexapac 250, untreated 4.2",4.4%
same,Gain Purity,"sugarcane [2]; 45 days after application, rate g ai/ha: haloxyfop-P-methyl 27, florpyrauxifen-benzyl 2.2, mixture 27 + 2.2, sulfometuron 15, trinexapac 250, untreated 7.7",10.3%
same,Gain TRS,"sugarcane [2]; 45 days after application, rate g ai/ha: haloxyfop-P-methyl 27, florpyrauxifen-benzyl 2.2, mixture 27 + 2.2, sulfometuron 15, trinexapac 250, untreated 38.4",39.9 kg/ton
same,% Control,"ratoon sugarcane; 124 g ai/ha, 14 DAA",60.5%
same,% Control,"ratoon sugarcane; 124 g ai/ha, 30 DAA",86.5%
same,% Control,"ratoon sugarcane; 124 g ai/ha, 45 DAA",91.5%
same,% Control,"ratoon sugarcane; 124 g ai/ha, 60 DAA",89.8%
same,% Control,"ratoon sugarcane; 248 g ai/ha, 14 DAA",67.2%
same,% Control,"ratoon sugarcane; 248 g ai/ha, 30 DAA",88.7%
same,% Control,"ratoon sugarcane; 248 g ai/ha, 45 DAA",92.0%
same,% Control,"ratoon sugarcane; 248 g ai/ha, 60 DAA",90.8%
same,% Control,"ratoon sugarcane; 373 g ai/ha, 14 DAA",68.3%
same,% Control,"ratoon sugarcane; 373 g ai/ha, 30 DAA",91.0%
same,% Control,"ratoon sugarcane; 373 g ai/ha, 45 DAA",93.5%
same,% Control,"ratoon sugarcane; 373 g ai/ha, 60 DAA",92.2%
same,% Control,"ratoon sugarcane; 620 g ai/ha, 14 DAA",71.8%
same,% Control,"ratoon sugarcane; 620 g ai/ha, 30 DAA",94.7%
same,% Control,"ratoon sugarcane; 620 g ai/ha, 45 DAA",95.2%
same,% Control,"ratoon sugarcane; 620 g ai/ha, 60 DAA",94.8%
same,% Control,"ratoon sugarcane; 1240 g ai/ha, 14 DAA",74.5%
same,% Control,"ratoon sugarcane; 1240 g ai/ha, 30 DAA",95.2%
same,% Control,"ratoon sugarcane; 1240 g ai/ha, 45 DAA",96.3%
same,% Control,"ratoon sugarcane; 1240 g ai/ha, 60 DAA",95.5%
same,ratoon sugarcane control,ratoon sugarcane; rates from 373 to 1240 g ai/ha at 30 DAA,more than 90%
